Measurements: patent US20220040129A1, “TREATMENT OF HYPERAMMONEMIA IN PATIENTS WITH RENAL INSUFFICIENCY” (RECORDATI S.p.A., priority 2019, published 2022)
Where two headings read alike, the source gives them in different places.

Assay: CARIV-A-001 Part A: single ascending IV doses over 20 minutes in healthy subjects
Format: in vivo, human
Details: for CL renal / AUC(0-t) / AUC(0-inf) / clearance / Cmax / half-life / Vd: both sexes, human, iv; for CL renal: plasma and urine; for AUC(0-t) / AUC(0-inf) / clearance / Cmax / half-life / Vd: plasma
Procedure: This study was conducted in healthy male or female volunteers, at a single site to assess the safety and PK profile of an IV formulation of Carbaglu and to determine the absolute bioavailability of the current marketed oral formulation of Carbaglu.
The levels of CGA in plasma and urine were analysed using a fully validated method, which included LC-MS/MS analysis. The PK data were analysed based on a non-compartmental model. A model-based approach was implemented for the characterization of the PK properties of the IV formulation in order to estimate the level of PK exposure after different doses administered with different duration of infusion. […] The PK parameters were determined using SAS (version 9.3), and modelling of the PK data was performed using NONMEM (version 7.3, ICON Solutions). PART A: Mono-Centre, Randomized, Successive Groups, Double-Blind, Placebo-Controlled Study in Healthy Male and Female Subjects
Each cohort included a minimum of 3 and maximum of 5 subjects of each of the two genders.
Three loading doses of CGA over 20 minutes were tested by IV administration, 3.5 mg/kg, 5.0 mg/kg and 7.5 mg/kg. For each of these three doses, 6 subjects were administered CGA and 2 received the placebo.
Plasma concentrations of CGA were measured at 18 timepoints, including a sample preceding the start of the administration, and then between 10 minutes and 48 hours following the initiation of the IV infusion.
The PK analysis of Carbaglu was conducted by using standard non-compartmental approach.

With NC(=O)N[C@@H](CCC(=O)O)C(=O)O [carglumic acid, N-carbamoyl-L-glutamic acid] the “Plasma levels observed, up to” value (IV administration over 20 minutes, healthy volunteers) was “up to 26,500 ng/mL”, the “Dose dependence of AUCinf, AUClast and Cmax” value (IV doses in the range of 3.5 mg/kg to 7.5 mg/kg) was “increase linearly” and the “Percent of dose excreted in urine” value (IV over 20 minutes, stable across the doses evaluated) was ~75%. The “Concentration up to which linearity of PK was shown” value (Part A) was “up to 26.5 μg/mL”, the “Dose excreted in the urine as parent compound over 24 hours” value (after IV administration) was 75 % of the dose and the CL renal (3.5 mg/kg, IV over 20 minutes, 3.5 mg/kg, read-out: Renal Clearance (RCl), Mean) was 4.33 mL/min/kg. It also gave a CL renal (3.5 mg/kg, IV over 20 minutes, 3.5 mg/kg, read-out: Renal Clearance (RCl), Median) of 4.17 mL/min/kg, a CL renal (3.5 mg/kg, IV over 20 minutes, 3.5 mg/kg, read-out: Renal Clearance (RCl), Range) of 3.33 to 5 mL/min/kg and a CL renal (5 mg/kg, IV over 20 minutes, 5.0 mg/kg, read-out: Renal Clearance (RCl), Mean) of 3.83 mL/min/kg. It also gave a CL renal (5 mg/kg, IV over 20 minutes, 5.0 mg/kg, read-out: Renal Clearance (RCl), Median) of 3.67 mL/min/kg, a CL renal (5 mg/kg, IV over 20 minutes, 5.0 mg/kg, read-out: Renal Clearance (RCl), Range) of 3.17 to 5.17 mL/min/kg and a CL renal (7.5 mg/kg, IV over 20 minutes, 7.5 mg/kg, read-out: Renal Clearance (RCl), Mean) of 4.33 mL/min/kg. The CL renal (7.5 mg/kg, IV over 20 minutes, 7.5 mg/kg, read-out: Renal Clearance (RCl), Median) was 4.17 mL/min/kg, the CL renal (7.5 mg/kg, IV over 20 minutes, 7.5 mg/kg, read-out: Renal Clearance (RCl), Range) was 3.5 to 5.33 mL/min/kg and the CL renal (IV over 20 minutes, stable across doses, read-out: Renal clearance (converted)) was ~4.17 mL/min/kg. It also gave a CL renal (after IV administration, read-out: Renal clearance, median) of 265 mL/min, a CL renal (after IV administration, read-out: Renal clearance, range) of 183 to 467 mL/min and an AUC(0-t) (3.5 mg/kg, IV over 20 minutes, 3.5 mg/kg, read-out: AUC24h, Mean) of 9850 ng·h/mL. The AUC(0-t) (3.5 mg/kg, IV over 20 minutes, 3.5 mg/kg, read-out: AUC24h, Median) was 9690 ng·h/mL, the AUC(0-t) (3.5 mg/kg, IV over 20 minutes, 3.5 mg/kg, read-out: AUC24h, Range) was 8990 to 11000 ng·h/mL and the AUC(0-inf) (3.5 mg/kg, IV over 20 minutes, 3.5 mg/kg, read-out: AUCinf, Mean) was 11000 ng·h/mL. It also gave an AUC(0-inf) (3.5 mg/kg, IV over 20 minutes, 3.5 mg/kg, read-out: AUCinf, Median) of 10900 ng·h/mL, an AUC(0-inf) (3.5 mg/kg, IV over 20 minutes, 3.5 mg/kg, read-out: AUCinf, Range) of 9740 to 12500 ng·h/mL and an AUC(0-t) (3.5 mg/kg, IV over 20 minutes, 3.5 mg/kg, read-out: AUClast-timepoint, Mean) of 10200 ng·h/mL. It also gave an AUC(0-t) (3.5 mg/kg, IV over 20 minutes, 3.5 mg/kg, read-out: AUClast-timepoint, Median) of 10100 ng·h/mL, an AUC(0-t) (3.5 mg/kg, IV over 20 minutes, 3.5 mg/kg, read-out: AUClast-timepoint, Range) of 8990 to 11500 ng·h/mL and a clearance (3.5 mg/kg, IV over 20 minutes, 3.5 mg/kg, read-out: Clearance (Cl), Mean) of 5.33 mL/min/kg. The clearance (3.5 mg/kg, IV over 20 minutes, 3.5 mg/kg, read-out: Clearance (Cl), Median) was 5.33 mL/min/kg, the clearance (3.5 mg/kg, IV over 20 minutes, 3.5 mg/kg, read-out: Clearance (Cl), Range) was 4.67 to 6 mL/min/kg and the Cmax (3.5 mg/kg, IV over 20 minutes, 3.5 mg/kg, read-out: Cmax, Mean) was 11400 ng/mL. The Cmax (3.5 mg/kg, IV over 20 minutes, 3.5 mg/kg, read-out: Cmax, Median) was 11400 ng/mL, the Cmax (3.5 mg/kg, IV over 20 minutes, 3.5 mg/kg, read-out: Cmax, Range) was 10700 to 12300 ng/mL and the half-life (3.5 mg/kg, IV over 20 minutes, 3.5 mg/kg, read-out: T1/2, Mean) was 20.6 h. It also gave a half-life (3.5 mg/kg, IV over 20 minutes, 3.5 mg/kg, read-out: T1/2, Median) of 21.1 h, a half-life (3.5 mg/kg, IV over 20 minutes, 3.5 mg/kg, read-out: T1/2, Range) of 6.6 to 36.1 h and a Vd (3.5 mg/kg, IV over 20 minutes, 3.5 mg/kg, read-out: Volume of Distribution (Vd), Mean) of 9.28 L/kg. It also gave a Vd (3.5 mg/kg, IV over 20 minutes, 3.5 mg/kg, read-out: Volume of Distribution (Vd), Median) of 8.75 L/kg, a Vd (3.5 mg/kg, IV over 20 minutes, 3.5 mg/kg, read-out: Volume of Distribution (Vd), Range) of 3.26 to 15.5 L/kg and an AUC(0-t) (5 mg/kg, IV over 20 minutes, 5.0 mg/kg, read-out: AUC24h, Mean) of 14800 ng·h/mL. For the same compound, the AUC(0-t) (5 mg/kg, IV over 20 minutes, 5.0 mg/kg, read-out: AUC24h, Median) was 14900 ng·h/mL, the AUC(0-t) (5 mg/kg, IV over 20 minutes, 5.0 mg/kg, read-out: AUC24h, Range) was 11100 to 19300 ng·h/mL and the AUC(0-inf) (5 mg/kg, IV over 20 minutes, 5.0 mg/kg, read-out: AUCinf, Mean) was 16100 ng·h/mL. For the same compound, the AUC(0-inf) (5 mg/kg, IV over 20 minutes, 5.0 mg/kg, read-out: AUCinf, Median) was 16600 ng·h/mL and the AUC(0-inf) (5 mg/kg, IV over 20 minutes, 5.0 mg/kg, read-out: AUCinf, Range) was 12300 to 20000 ng·h/mL.
